According to patent US12485161B2, “Compositions comprising sulforaphane or a sulforaphane precursor and a milk thistle extract or powder” (Nutramax Laboratories, Inc., priority 2012, dated 2025):

Columns and labels:
[1] = test system: myrosinase; assay: Conversion of glucoraphanin to sulforaphane in simulated intestinal fluid (Example 5); assay type: biochemical, broccoli; conditions: 38° C., 0.25 to 1.00 mmol/Liter ascorbic acid, FIG. 4
Description: Conversion of Glucoraphanin to Sulforaphane in the Presence of Simulated Intestinal Fluid. Simulated Intestinal Fluid (SW) powder, a commercially supplied concentrate closely approximating the human intestinal content in terms of composition, pH and ionic strength, was used. The experiment utilized a USP Dissolution Apparatus 2 (paddles), where into six dissolution vessels 500 mL of Simulated Intestinal Fluid was dispensed, along with 150 mg of freeze-dried broccoli sprout powder as a source of myrosinase. […] Aliquots were withdrawn every 15 minutes, and assayed for sulforaphane.

[2] = test system: HepG2 cells; assay: Glutathione levels in HepG2 cells (o-phthalaldehyde fluorescence); assay type: cell-based, human
Description: The following study was conducted to determine the effect of the combination of sulforaphane and silibinin on glutathione levels. Glutathione plays an important role in the body, as it can serve as an antioxidant, detoxifier, and immunity enhancer. Decreased levels of glutathione can cause a patient to be susceptible to oxidative stress, illness, and cancer. Therefore, an increase in glutathione levels is a beneficial effect.
In the study, the human liver cancer cell line, HepG2 cells were treated with DMSO (vehicle control), sulforaphane (SFN), silibinin (Silib), or the combination of sulforaphane and silibinin, for 24 hours. Cell lysates were collected and glutathione levels were measured using o-phthalaldehyde (OPT) as a fluorescent reagent. FIG. 5 and FIG. 6 show the results of the study.
In Part 1 of the study, the effect of 0.5 μM SFN was compared to various concentrations of silibinin and to the combination of 0.5 μM SFN and silibinin at various concentrations. […] An increase in glutathione levels is a beneficial effect. The results are depicted in FIG. 5.
In Part 2 of the study, the effect of 2 μM SFN was compared to various concentrations of silibinin and to the combination of 2 μM SFN and silibinin at various concentrations. […] An increase in glutathione levels is a beneficial effect to detoxify cells. The results are depicted in FIG. 6.

[3] = test system: NAD(P)H:quinine oxidoreductase (NQO1); conditions: oral administration, mammary epithelium; cited from earlier work
[4] = test system: heme oxygenase-1 (HO-1); conditions: oral administration, mammary epithelium; cited from earlier work

Structure (SMILES): O=C1O[C@H]([C@@H](O)CO)C(O)=C1O [ascorbic acid]
- Yield of sulforaphane versus ascorbic acid concentration [1]: direct correlation between larger yield of sulforaphane and higher concentrations of ascorbic acid

Structure (SMILES): C[S+]([O-])CCCCN=C=S (centres unmarked) [sulforaphane, 1-isothiocyanato-4-methylsulfinylbutane]
- Glutathione levels compared to DMSO (vehicle) control ([2]; Part 1, 24 hours, 0.5 μM SFN, 100, 200, 300 μM Silib, FIG. 5): remained the same
- Glutathione levels compared to the control ([2]; Part 2, 24 hours, 2 μM SFN, 100, 300 μM Silib, FIG. 6): remained the same

Structure (SMILES): C[S+]([O-])CCCC/C(=N\OS(=O)(=O)O)S[C@@H]1O[C@H](CO)[C@@H](O)[C@H](O)[C@H]1O (stereo partly drawn) [GR, 1-S-[(1E)-5-(methylsulfinyl)-N-(sulfonatooxy)pentanimidoyl]-1-thio-β-D-glucopyranose]
- Increase in NQO1 enzymatic activity [3]: 3 fold
- Elevated immunostaining of HO-1 enzyme [4]: 4 fold
